Data taken from patent US20180201899A1, “IPSC-EC PERFORMANCE ENHANCEMENT VIA SIRT1 OVEREXPRESSION” (Northwestern University, priority 2015, published 2018).

Test system: iPSC-ECs
Assay: Senescence associated β-galactosidase staining
Format: cell-based
Method: Nitric oxide (NO) production was assessed via 4,5-diaminofluorescein.diacetate (DAF 2-DA) assay (Life Technologies). Cell mitogenic effect in response to VEGF (100 ng/ml) was assessed via MTT assay (Sigma-Aldrich) after treating cells in serum-free (starvation) medium, or starvation medium containing 100 ng/ml VEGF for 24 hours. Cell proliferation was determined by counting cell number every seven days after lentiviral transduction using a hemocytometer by excluding dead cells with Trypan blue. […] All results were normalized to cell number via Alamar blue assay (Sigma-Aldrich).Cellular senescence assay kit (Cell Signaling Technology, Danvers, Mass.) was used to stain for senescence associated β-galactosidase (β-gal) in the presence or absence of Ex-527 (10 μM), a SIRT1 inhibitor, and the percentage of β-gal positive cells was quantified with ImageJ. […]
Cellular senescence assay kit (Cell Signaling Technology, Danvers, Mass.) was used to stain for β-galactosidase (β-gal) in the presence or absence of Ex-527 (10 μM), a SIRT1 inhibitor (18), and the percentage of β-gal positive cells was quantified with ImageJ. […] Cell proliferation was determined by counting cell number every seven days after lentiviral transduction using a hemocytometer by excluding dead cells with Trypan blue. […] NO production was assessed via 4,5-diaminofluorescein.diacetate (DAF 2-DA) assay (Life Technologies). […]

Compound: NC(=O)C1CCCc2c1[nH]c1ccc(Cl)cc21 (centres unmarked) [Ex-527]
- β-gal+ (senescent) cells (10 μM Ex-527, LV-empty transduced cells, passage 6): 56.0±6.2%
- effect on percentage of senescent cells (10 μM Ex-527, all lentiviral groups): higher percentage of senescent cells in all groups
